The target of one assay is EGFR L858R/T790M/C797S (Homo sapiens, UniProt P00533, C797S/L858R/T790M). Description: Biochemical EGFR kinase assay (Lance Ultra TR-FRET), triple mutant L858R/T790M/C797S. The procedure, abridged:
(§1)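 Step 1: compound in kinase buffer, 0.003–10 μM. Step 2: kinase reaction 1 h at room temperature. Step 4: TR-FRET read at 615/665 nm; IC50 calculated.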
For orientation: Time-resolved FRET reads energy transfer from a long-lived donor to a nearby acceptor.

The next assay concerns the target EGFR L858R/C797S (Homo sapiens, UniProt P00533, C797S/L858R). Description: Biochemical EGFR kinase assay (Lance Ultra TR-FRET), double mutant L858R/C797S. Put shortly:
as §1

The target in the next assay is EGFR wildtype (Homo sapiens, UniProt P00533). Description: Biochemical EGFR kinase assay (Lance Ultra TR-FRET), wildtype. Put shortly: as §1
Another assay has as its target EGFR del19/C797S (Homo sapiens, UniProt P00533, C797S/DEL746-750). Description: Biochemical EGFR kinase assay (Lance Ultra TR-FRET), double mutant del19/C797S. The procedure, abridged:
as §1

The next assay concerns the target EGFR del19/T790M/C797S (Homo sapiens, UniProt P00533, C797S/DEL746-750/T790M). Description: Biochemical EGFR kinase assay (Lance Ultra TR-FRET), triple mutant del19/T790M/C797S. The procedure, abridged: as §1
[1] abbreviates: IC50 L858R/T790M/C797S (nM) 100 μM ATP, 100 μM ATP.
The mark [2] stands for this setting: Km ATP, read-out: IC50 L858R/T790M/C797S (nM) Km ATP.
[3] abbreviates: IC50 L858R/C797S (nM) 100 μM ATP, 100 μM ATP.
[4] abbreviates: Km ATP, read-out: IC50 L858R/C797S (nM) Km ATP.
[5] abbreviates: IC50 WT (nM) 100 μM ATP, 100 μM ATP.
Setting [6] is: Km ATP, read-out: IC50 WT (nM) Km ATP.
Where [7] appears, read: IC50 del19/C797S (nM) 100 μM ATP, 100 μM ATP.
Where [8] appears, read: Km ATP, read-out: IC50 del19/C797S (nM) Km ATP.
Where [9] appears, read: IC50 del19/T790M/C797S (nM) 100 μM ATP, 100 μM ATP.
The mark [10] stands for this setting: Km ATP, read-out: IC50 del19/T790M/C797S (nM) Km ATP.
Setting [11] is: ATP at Km, read-out: IC50 L858R/T790M/C797S, Km ATP.
Setting [12] is: ATP at Km, read-out: IC50 L858R/C797S, Km ATP.
Where [13] appears, read: ATP at Km, read-out: IC50 WT, Km ATP.
The mark [14] stands for this setting: ATP at Km, read-out: IC50 del19/C797S, Km ATP.
The mark [15] stands for this setting: ATP at Km, read-out: IC50 del19/T790M/C797S, Km ATP.
Where [16] appears, read: IC50 L858R/T790M/C797S, 100 μM ATP.

SMILES strings stand for the structures. pIC50: −log10 of the molar value. Where two headings read alike, the source gives them in different places.

EGFR del19/C797S, sequence (P00533 with tags, fused parts or gaps DEL746-750/C797S): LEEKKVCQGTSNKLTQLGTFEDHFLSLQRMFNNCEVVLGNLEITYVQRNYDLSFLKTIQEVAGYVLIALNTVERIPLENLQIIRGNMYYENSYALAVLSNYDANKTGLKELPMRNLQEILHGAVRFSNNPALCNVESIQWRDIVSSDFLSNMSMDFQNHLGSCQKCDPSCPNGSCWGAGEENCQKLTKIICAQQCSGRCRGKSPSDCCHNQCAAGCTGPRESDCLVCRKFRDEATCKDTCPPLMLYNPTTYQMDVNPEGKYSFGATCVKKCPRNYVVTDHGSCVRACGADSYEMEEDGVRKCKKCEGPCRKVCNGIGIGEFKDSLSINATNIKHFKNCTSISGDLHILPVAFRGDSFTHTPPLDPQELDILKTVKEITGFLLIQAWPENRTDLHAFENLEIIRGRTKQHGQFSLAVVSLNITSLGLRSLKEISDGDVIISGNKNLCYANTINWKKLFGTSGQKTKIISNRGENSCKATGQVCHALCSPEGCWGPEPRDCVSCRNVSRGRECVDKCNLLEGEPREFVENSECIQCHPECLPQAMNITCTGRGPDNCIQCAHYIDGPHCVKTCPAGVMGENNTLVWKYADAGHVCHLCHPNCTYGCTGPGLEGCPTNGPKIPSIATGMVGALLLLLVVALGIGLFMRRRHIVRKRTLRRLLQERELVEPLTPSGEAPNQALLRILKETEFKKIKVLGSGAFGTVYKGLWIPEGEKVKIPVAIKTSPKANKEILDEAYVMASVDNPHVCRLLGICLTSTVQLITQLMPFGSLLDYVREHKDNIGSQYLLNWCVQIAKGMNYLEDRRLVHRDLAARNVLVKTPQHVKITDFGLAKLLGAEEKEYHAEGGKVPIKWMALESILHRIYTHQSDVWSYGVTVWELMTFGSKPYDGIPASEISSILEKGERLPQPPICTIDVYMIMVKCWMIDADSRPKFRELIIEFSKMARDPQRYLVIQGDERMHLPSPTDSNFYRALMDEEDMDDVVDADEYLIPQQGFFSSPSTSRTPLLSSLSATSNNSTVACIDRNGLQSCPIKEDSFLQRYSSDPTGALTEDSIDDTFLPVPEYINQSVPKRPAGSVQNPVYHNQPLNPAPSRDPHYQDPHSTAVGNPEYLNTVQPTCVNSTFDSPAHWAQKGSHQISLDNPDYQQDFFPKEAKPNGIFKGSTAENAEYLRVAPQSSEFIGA
EGFR L858R/T790M/C797S, sequence (P00533 25-1210 T790M/C797S/L858R): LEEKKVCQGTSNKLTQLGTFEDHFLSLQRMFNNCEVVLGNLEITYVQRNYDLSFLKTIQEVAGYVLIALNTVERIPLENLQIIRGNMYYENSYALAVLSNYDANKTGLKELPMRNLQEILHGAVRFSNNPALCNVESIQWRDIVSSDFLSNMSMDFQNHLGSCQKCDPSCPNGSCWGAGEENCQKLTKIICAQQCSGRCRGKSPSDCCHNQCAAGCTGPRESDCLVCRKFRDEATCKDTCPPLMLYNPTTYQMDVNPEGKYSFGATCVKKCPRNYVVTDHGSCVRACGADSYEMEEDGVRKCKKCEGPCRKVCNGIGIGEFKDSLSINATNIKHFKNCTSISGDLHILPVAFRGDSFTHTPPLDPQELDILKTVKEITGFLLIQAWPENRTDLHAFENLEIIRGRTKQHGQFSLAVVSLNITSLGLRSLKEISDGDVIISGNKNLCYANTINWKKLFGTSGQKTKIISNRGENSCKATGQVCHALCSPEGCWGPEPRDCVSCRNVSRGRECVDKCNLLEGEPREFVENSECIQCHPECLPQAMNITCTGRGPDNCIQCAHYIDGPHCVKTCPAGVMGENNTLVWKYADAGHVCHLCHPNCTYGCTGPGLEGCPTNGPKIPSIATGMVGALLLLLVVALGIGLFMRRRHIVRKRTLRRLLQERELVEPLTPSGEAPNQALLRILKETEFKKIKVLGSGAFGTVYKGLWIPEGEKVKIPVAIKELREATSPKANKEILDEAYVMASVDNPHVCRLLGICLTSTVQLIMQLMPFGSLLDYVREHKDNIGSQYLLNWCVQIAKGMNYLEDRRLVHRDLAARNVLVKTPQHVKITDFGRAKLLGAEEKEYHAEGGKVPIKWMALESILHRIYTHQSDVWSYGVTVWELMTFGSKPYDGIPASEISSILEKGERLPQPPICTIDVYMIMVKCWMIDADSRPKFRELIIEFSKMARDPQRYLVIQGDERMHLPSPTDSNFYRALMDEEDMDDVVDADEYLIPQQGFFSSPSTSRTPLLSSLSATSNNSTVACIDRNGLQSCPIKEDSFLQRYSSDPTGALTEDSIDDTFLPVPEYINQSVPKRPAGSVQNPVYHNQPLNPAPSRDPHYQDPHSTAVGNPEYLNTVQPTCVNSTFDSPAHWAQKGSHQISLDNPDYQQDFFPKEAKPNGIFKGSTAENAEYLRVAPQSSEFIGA
EGFR wildtype, sequence (P00533 25-1210): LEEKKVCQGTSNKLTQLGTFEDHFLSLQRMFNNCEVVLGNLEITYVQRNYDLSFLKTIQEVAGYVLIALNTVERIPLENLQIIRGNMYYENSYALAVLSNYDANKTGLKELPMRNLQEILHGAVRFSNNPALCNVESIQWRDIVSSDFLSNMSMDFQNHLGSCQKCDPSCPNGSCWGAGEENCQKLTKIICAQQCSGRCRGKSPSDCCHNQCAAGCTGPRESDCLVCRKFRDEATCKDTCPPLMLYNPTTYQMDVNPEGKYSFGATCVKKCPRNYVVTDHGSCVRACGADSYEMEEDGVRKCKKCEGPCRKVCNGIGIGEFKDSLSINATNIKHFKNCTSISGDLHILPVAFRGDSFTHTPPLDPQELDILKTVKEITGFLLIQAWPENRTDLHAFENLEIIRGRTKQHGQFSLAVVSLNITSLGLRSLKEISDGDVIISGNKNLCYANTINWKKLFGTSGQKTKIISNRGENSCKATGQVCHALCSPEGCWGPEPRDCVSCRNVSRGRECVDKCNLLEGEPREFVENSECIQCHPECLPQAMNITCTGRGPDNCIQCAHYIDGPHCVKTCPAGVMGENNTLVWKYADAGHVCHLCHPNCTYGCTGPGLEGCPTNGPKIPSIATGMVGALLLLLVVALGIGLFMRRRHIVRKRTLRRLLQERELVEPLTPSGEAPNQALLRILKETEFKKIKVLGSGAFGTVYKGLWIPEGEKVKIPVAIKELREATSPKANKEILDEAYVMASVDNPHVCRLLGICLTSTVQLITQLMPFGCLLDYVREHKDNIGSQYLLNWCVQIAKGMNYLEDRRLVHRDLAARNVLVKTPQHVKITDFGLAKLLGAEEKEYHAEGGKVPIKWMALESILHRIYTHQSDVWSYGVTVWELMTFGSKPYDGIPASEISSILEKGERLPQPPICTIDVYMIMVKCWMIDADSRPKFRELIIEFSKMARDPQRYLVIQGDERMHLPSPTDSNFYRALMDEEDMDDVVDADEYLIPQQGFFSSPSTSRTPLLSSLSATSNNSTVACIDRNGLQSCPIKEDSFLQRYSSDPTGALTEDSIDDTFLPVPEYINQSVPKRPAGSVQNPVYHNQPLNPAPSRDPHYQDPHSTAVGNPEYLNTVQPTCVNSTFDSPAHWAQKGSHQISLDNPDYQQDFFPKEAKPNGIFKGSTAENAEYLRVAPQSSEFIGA
EGFR del19/T790M/C797S, sequence (P00533 with tags, fused parts or gaps DEL746-750/T790M/C797S): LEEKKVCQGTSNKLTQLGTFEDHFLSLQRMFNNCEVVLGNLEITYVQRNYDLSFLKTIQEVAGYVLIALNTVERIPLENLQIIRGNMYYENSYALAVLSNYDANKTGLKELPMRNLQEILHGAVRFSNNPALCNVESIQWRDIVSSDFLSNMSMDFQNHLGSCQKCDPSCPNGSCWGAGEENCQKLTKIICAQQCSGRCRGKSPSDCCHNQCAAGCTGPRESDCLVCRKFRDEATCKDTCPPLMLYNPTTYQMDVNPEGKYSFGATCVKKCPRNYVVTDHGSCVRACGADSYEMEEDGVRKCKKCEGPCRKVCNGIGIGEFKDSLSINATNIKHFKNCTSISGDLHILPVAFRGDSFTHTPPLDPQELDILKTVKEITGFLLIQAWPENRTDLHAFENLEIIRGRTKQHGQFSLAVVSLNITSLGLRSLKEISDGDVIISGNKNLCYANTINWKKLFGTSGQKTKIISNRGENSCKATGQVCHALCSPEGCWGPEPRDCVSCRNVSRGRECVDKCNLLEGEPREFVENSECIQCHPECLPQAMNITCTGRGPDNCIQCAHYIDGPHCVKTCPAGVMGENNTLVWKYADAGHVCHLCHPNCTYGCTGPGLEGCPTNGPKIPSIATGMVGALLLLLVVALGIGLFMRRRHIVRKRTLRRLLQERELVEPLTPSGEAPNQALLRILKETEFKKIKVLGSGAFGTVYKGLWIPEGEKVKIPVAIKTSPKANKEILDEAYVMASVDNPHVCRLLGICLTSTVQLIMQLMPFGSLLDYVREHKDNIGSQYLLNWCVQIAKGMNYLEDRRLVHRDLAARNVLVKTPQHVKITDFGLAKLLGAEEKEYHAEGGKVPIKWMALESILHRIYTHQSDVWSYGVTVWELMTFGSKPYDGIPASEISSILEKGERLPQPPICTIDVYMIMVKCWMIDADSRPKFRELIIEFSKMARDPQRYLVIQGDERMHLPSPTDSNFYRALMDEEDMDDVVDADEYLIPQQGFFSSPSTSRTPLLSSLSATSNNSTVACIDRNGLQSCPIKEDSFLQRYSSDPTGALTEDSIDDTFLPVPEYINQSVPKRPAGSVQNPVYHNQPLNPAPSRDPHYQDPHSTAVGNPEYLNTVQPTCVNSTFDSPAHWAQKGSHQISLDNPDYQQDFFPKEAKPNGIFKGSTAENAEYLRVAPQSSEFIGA

Regarding `COC1CN(c2ccc(-c3cnc(Nc4ccnc(-c5cnn(S(=O)(=O)C6CC6)c5)n4)cc3N[C@H]3CC[C@@H](CO)CC3)nc2)C1` [Example 91, ((1s,4s)-4-((6′-((2-(1-(Cyclopropylsulfonyl)-1H-pyrazol-4-yl)pyrimidin-4-yl)amino)-5-(3-methoxyazetidin-1-yl)-[2,3′-bipyridin]-4′-yl)amino)cyclohexyl)methanol], the IC50 was 1.1 nM against EGFR L858R/T790M/C797S (setting [1]); 0.9 nM at EGFR L858R/T790M/C797S (setting [2]); 9.7 nM at EGFR L858R/C797S (setting [3]); 0.8 nM on EGFR L858R/C797S (setting [4]); > 10000 nM against EGFR wildtype (setting [5]); 2.5 nM on EGFR wildtype (setting [6]). Besides, the IC50 at EGFR del19/C797S (setting [7]) is 2.8 nM; on EGFR del19/C797S (setting [8]) it was 0.9 nM; against EGFR del19/T790M/C797S (setting [9]) it was 1.3 nM; at EGFR del19/T790M/C797S (setting [10]), 0.5 nM.

`O=S(=O)(C1CC1)n1cc(-c2nccc(Nc3cc(N[C@H]4CC[C@@H](CO)CC4)c(-c4cc(N5CCC(F)(F)CC5)ccn4)cn3)n2)cn1` [Example 100, ((1s,4s)-4-((6′-((2-(1-(Cyclopropylsulfonyl)-1H-pyrazol-4-yl)pyrimidin-4-yl)amino)-4-(4,4-difluoropiperidin-1-yl)-[2,3′-bipyridin]-4′-yl)amino)cyclohexyl)methanol]: the IC50 amounted to 5.3 nM against EGFR L858R/T790M/C797S (setting [1]); 1.3 nM at EGFR L858R/T790M/C797S (setting [2]); 24.9 nM against EGFR L858R/C797S (setting [3]); 12.9 nM at EGFR L858R/C797S (setting [4]); 7220 nM at EGFR wildtype (setting [5]); 12.7 nM on EGFR wildtype (setting [6]). The IC50 against EGFR del19/C797S (setting [7]) stood at 10.8 nM; at EGFR del19/C797S (setting [8]), 6.5 nM; at EGFR del19/T790M/C797S (setting [9]) it was 8.1 nM; on EGFR del19/T790M/C797S (setting [10]) it was 6.4 nM.

Take `CN1CCC(F)(COc2cnc(-c3cnc(Nc4ccnc(-c5cnn(S(=O)(=O)C6CC6)c5)n4)cc3N[C@H]3CC[C@@](C)(O)CC3)cn2)CC1` [Example 154, (1s,4s)-4-((2-((2-(1-(Cyclopropylsulfonyl)-1H-pyrazol-4-yl)pyrimidin-4-yl)amino)-5-(5-((4-fluoro-1-methylpiperidin-4-yl)methoxy)pyrazin-2-yl)pyridin-4-yl)amino)-1-methylcyclohexan-1-ol]: the pIC50 on EGFR L858R/T790M/C797S (setting [11]) is 10.00; on EGFR L858R/C797S (setting [12]), 9.70; at EGFR wildtype (setting [13]), 8.57; at EGFR del19/C797S (setting [14]), 9.52; at EGFR del19/T790M/C797S (setting [15]), 9.70.

On to `CC1(O)CCC(Nc2cc(Nc3ccnc(-c4cnn(S(=O)(=O)C5CC5)c4)n3)ncc2-c2ccc(C(C)(O)C(F)(F)F)cn2)CC1` (stereo not drawn) [Example 230, (1s,4s)-4-((6′-((2-(1-(Cyclopropylsulfonyl)-1H-pyrazol-4-yl)pyrimidin-4-yl)amino)-5-(1,1,1-trifluoro-2-hydroxypropan-2-yl)-[2,3′-bipyridin]-4′-yl)amino)-1-methylcyclohexan-1-ol], for which the pIC50 on EGFR L858R/T790M/C797S (setting [11]) was 9.40; against EGFR L858R/T790M/C797S (setting [16]), 9.22; on EGFR L858R/C797S (setting [12]), 8.62; against EGFR L858R/C797S (IC50 L858R/C797S, 100 μM ATP), 8.11; at EGFR wildtype (setting [13]) it was 8.30; on EGFR wildtype (IC50 WT, 100 μM ATP), 5.78. The pIC50 on EGFR del19/C797S (setting [14]) was 8.77; against EGFR del19/C797S (IC50 del19/C797S, 100 μM ATP) it was 8.22; on EGFR del19/T790M/C797S (setting [15]), 8.96.

Turning to `C[C@]1(O)CC[C@@H](Nc2cc(Nc3ccnc(-c4cnn(S(=O)(=O)C5CC5)c4)n3)ncc2-c2cc(C(F)F)ccn2)CC1` [Example 76, (1s,4s)-4-((6′-((2-(1-(Cyclopropylsulfonyl)-1H-pyrazol-4-yl)pyrimidin-4-yl)amino)-4-(difluoromethyl)-[2,3′-bipyridin]-4′-yl)amino)-1-methylcyclohexan-1-ol], the IC50 against EGFR L858R/T790M/C797S (setting [1]) is 0.8 nM; at EGFR L858R/T790M/C797S (setting [2]) it was 0.9 nM; against EGFR L858R/C797S (setting [3]), 14.5 nM; at EGFR L858R/C797S (setting [4]) it was 2.1 nM; against EGFR wildtype (setting [5]) it was > 10000 nM; on EGFR wildtype (setting [6]) it was 8.1 nM. For the same compound, the IC50 amounted to 2 nM at EGFR del19/C797S (setting [7]), 1.6 nM at EGFR del19/C797S (setting [8]), 1 nM at EGFR del19/T790M/C797S (setting [9]) and 2 nM at EGFR del19/T790M/C797S (setting [10]).

Turning to `COC(c1ccc(-c2cnc(Nc3ccnc(-c4cnn(S(=O)(=O)C5CC5)c4)n3)cc2NC2CCC(CO)CC2)nc1)C(F)(F)F` (stereo not drawn) [Example 261, ((1s,4s)-4-((6′-((2-(1-(Cyclopropylsulfonyl)-1H-pyrazol-4-yl)pyrimidin-4-yl)amino)-5-(2,2,2-trifluoro-1-methoxyethyl)-[2,3′-bipyridin]-4′-yl)amino)cyclohexyl)methanol], the pIC50 at EGFR L858R/T790M/C797S (setting [11]) is 8.39; at EGFR L858R/C797S (setting [12]), 8.12; at EGFR wildtype (setting [13]), 8.04; on EGFR del19/C797S (setting [14]) it was 7.99; on EGFR del19/T790M/C797S (setting [15]), 8.02.

For the compound `C[C@]1(O)CC[C@@H](Nc2cc(Nc3ccnc(-c4cnn(S(=O)(=O)C5CC5)c4)n3)ncc2-c2ccc(CC(F)(F)F)cn2)CC1` [Example 218, (1s,4s)-4-((6′-((2-(1-(Cyclopropylsulfonyl)-1H-pyrazol-4-yl)pyrimidin-4-yl)amino)-5-(2,2,2-trifluoroethyl)-[2,3′-bipyridin]-4′-yl)amino)-1-methylcyclohexan-1-ol], the pIC50 on EGFR L858R/T790M/C797S (setting [11]) is 9.15; on EGFR L858R/T790M/C797S (setting [16]), 8.74; on EGFR L858R/C797S (setting [12]) it was 8.44; at EGFR L858R/C797S (IC50 L858R/C797S, 100 μM ATP), 7.23; on EGFR wildtype (setting [13]) it was 7.99; at EGFR wildtype (IC50 WT, 100 μM ATP), < 5.00. Also, the pIC50 against EGFR del19/C797S (IC50 del19/C797S, 100 μM ATP) is 8.15; on EGFR del19/T790M/C797S (setting [15]), 8.68; on EGFR del19/T790M/C797S (IC50 del19/T790M/C797S, 100 μM ATP) it was 9.22.

As for `COC1CN(c2ccc(-c3cnc(Nc4ccnc(-c5cnn(S(=O)(=O)C6CC6)c5)n4)cc3N[C@H]3CC[C@@H](C(C)(C)O)CC3)nc2)C1` [Example 92, 2-((1s,4s)-4-((6′-((2-(1-(Cyclopropylsulfonyl)-1H-pyrazol-4-yl)pyrimidin-4-yl)amino)-5-(3-methoxyazetidin-1-yl)-[2,3′-bipyridin]-4′-yl)amino)cyclohexyl)propan-2-ol], the IC50 against EGFR L858R/T790M/C797S (setting [1]) turned out to be 2.3 nM; on EGFR L858R/T790M/C797S (setting [2]), 1.4 nM; against EGFR L858R/C797S (setting [3]), 78.8 nM; at EGFR L858R/C797S (setting [4]) it was 4.7 nM; at EGFR wildtype (setting [5]), 172 nM; on EGFR wildtype (setting [6]) it was 0.1 nM. Also, the IC50 is 7.2 nM against EGFR del19/C797S (setting [7]), 4.4 nM on EGFR del19/C797S (setting [8]), 1.6 nM at EGFR del19/T790M/C797S (setting [9]) and 1 nM on EGFR del19/T790M/C797S (setting [10]).

On to `CC(O)c1cccc(-c2cnc(Nc3ccnc(-c4cnn(S(=O)(=O)C5CC5)c4)n3)cc2NC2CCC(C)(O)CC2)n1` (stereo not drawn) [Example 23, (1s,4s)-4-((6′-((2-(1-(Cyclopropylsulfonyl)-1H-pyrazol-4-yl)pyrimidin-4-yl)amino)-6-(1-hydroxyethyl)-[2,3′-bipyridin]-4′-yl)amino)-1-methylcyclohexan-1-ol], for which the IC50 was 1 nM against EGFR L858R/T790M/C797S (setting [1]); 6.2 nM on EGFR L858R/C797S (setting [3]); 0.6 nM at EGFR L858R/C797S (setting [4]); > 10000 nM at EGFR wildtype (setting [5]); 13.7 nM on EGFR wildtype (setting [6]); 5 nM against EGFR del19/C797S (setting [7]). The figures for the IC50 on EGFR del19/C797S (setting [8]), against EGFR del19/T790M/C797S (setting [9]) and on EGFR del19/T790M/C797S (setting [10]) were 1.8 nM, 1.1 nM and 1.6 nM, respectively.

As to `CC(C)(O)c1cc(-c2cnc(Nc3ccnc(-c4cnn(S(=O)(=O)C5CC5)c4)n3)cc2N[C@H]2CC[C@@](C)(O)CC2)ncc1F` [Example 104, (1s,4s)-4-((6′-((2-(1-(Cyclopropylsulfonyl)-1H-pyrazol-4-yl)pyrimidin-4-yl)amino)-5-fluoro-4-(2-hydroxypropan-2-yl)-[2,3′-bipyridin]-4′-yl)amino)-1-methylcyclohexan-1-ol], the IC50 against EGFR L858R/T790M/C797S (setting [1]) was 0.8 nM; at EGFR L858R/T790M/C797S (setting [2]) it was 0.6 nM; on EGFR L858R/C797S (setting [3]) it was 21.6 nM; on EGFR L858R/C797S (setting [4]) it was 0.9 nM; on EGFR wildtype (setting [5]), > 10000 nM; at EGFR wildtype (setting [6]), 21.9 nM. The IC50 at EGFR del19/C797S (setting [7]) amounted to 3.1 nM; at EGFR del19/C797S (setting [8]), 2.2 nM; against EGFR del19/T790M/C797S (setting [9]), 1.8 nM; at EGFR del19/T790M/C797S (setting [10]), 1.1 nM.

For the origin of these results see patent publication US12258328B2, “6-membered heteroaryl-containing aminopyridine compounds as EGFR inhibitors” (YUHAN CORPORATION, priority 2021, dated 2025).
